Structures can show the parent of a compound that is named as a salt.
Experiment: Particle size distribution (Sympatec Helos laser diffraction)
Assay type: physicochemical
Settings: for Particle size distribution, quantile 5% / Particle size distribution, quantile 10% / Particle size distribution, quantile 50% (median particle size) / Particle size distribution, quantile 90% / Particle size distribution, quantile 95%: Sympatec Helos
Source text: As used herein, “particle size distribution” means the distribution of equivalent spherical diameters as determined by laser diffraction at 1 bar dispersive pressure in a Sympatec Helos equipment. “Median particle size”, correspondingly, means the median of said particle size distribution.

SMILES	Particle size distribution, quantile 5%	Particle size distribution, quantile 10%	Particle size distribution, quantile 50% (median particle size)	Particle size distribution, quantile 90%	Particle size distribution, quantile 95%	Particle size (product of the process used for the preparation of citalopram hydrobromide (background))
Br.CN(C)CCCC1(c2ccc(F)cc2)OCc2cc(C#N)ccc21 (single isomer, unassigned) [Example 1, Citalopram hydrobromide]	8.23 μm	16.54 μm	96.87 μm	342.89 μm	465.43 μm	–
Br.CN(C)CCCC1(c2ccc(F)cc2)OCc2cc(C#N)ccc21 (single isomer, unassigned) [Example 2, Citalopram hydrobromide]	6.67 μm	11.97 μm	52.70 μm	352.23 μm	549.42 μm	–
Br.CN(C)CCCC1(c2ccc(F)cc2)OCc2cc(C#N)ccc21 (single isomer, unassigned) [Example 3, Citalopram hydrobromide]	0.82 μm	1.19 μm	14.04 μm	72.27 μm	96.96 μm	–
CN(C)CCCC1(c2ccc(F)cc2)OCc2cc(C#N)ccc21 (stereo not shown) [citalopram hydrobromide, reference compound]	–	–	–	–	–	2-20 μm
